Results from ChEMBL document CHEMBL1201862, “PubChem BioAssay data set” (2004).
Calls of active or inactive are those of the source.

Tests used:
[1] = target: T1, Nuclear receptor subfamily 0 group B member 1 (Homo sapiens, UniProt P51843); experiment: Luminescence-based cell-based high throughput dose response assay for inhibitors of the orphan nuclear receptor subfamily 0, group B, member 1 (DAX1; NR0B1). [Related pubchem assays (depositor defined):AID504766, AID504790]; format: functional
T1 sequence (P51843 whole entry): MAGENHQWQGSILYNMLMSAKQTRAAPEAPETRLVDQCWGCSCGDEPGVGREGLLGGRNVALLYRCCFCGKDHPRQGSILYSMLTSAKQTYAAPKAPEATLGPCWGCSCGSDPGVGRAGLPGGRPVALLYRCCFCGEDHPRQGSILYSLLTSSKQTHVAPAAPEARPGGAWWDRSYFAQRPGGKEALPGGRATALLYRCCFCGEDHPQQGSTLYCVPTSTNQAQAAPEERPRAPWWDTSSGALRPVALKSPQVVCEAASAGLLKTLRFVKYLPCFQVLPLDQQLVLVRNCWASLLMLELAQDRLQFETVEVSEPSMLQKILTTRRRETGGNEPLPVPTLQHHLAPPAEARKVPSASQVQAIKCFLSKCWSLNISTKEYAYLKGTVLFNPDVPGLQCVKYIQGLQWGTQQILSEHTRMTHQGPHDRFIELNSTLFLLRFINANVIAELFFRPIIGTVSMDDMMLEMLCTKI

HEK293 = experiment: cells; format: functional, cell-based; settings: Homo sapiens
[2] = target: Beta-2 adrenergic receptor (Homo sapiens, UniProt P07550); experiment: ADRB2 activation measured by internalization – cell-based, FAP fluorogen, flow cytometry, cherry pick 1, dose response (AID 588763); format: functional
H9c2 = experiment: cells; format: functional, cell-based; settings: Rattus norvegicus, H9c2, Myocardium;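 note: confirmatory concentration-response retest of ultra-high-throughput screening hits for modulation of myocardial damage; cell death induced by hydrogen peroxide oxidative stress; compound pretreatment for 60 min then peroxide exposure for 2 h; potency is for protecting the cells against peroxide damage rather than for killing them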
[3] = target: T2, Ubiquitin-conjugating enzyme E2 N (Homo sapiens, UniProt P61088); format: functional;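 note: Dose-response confirmation in a TR-FRET assay detecting UBC13-driven polyubiquitin chain formation, inhibition measured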
T2 sequence (P61088 whole entry): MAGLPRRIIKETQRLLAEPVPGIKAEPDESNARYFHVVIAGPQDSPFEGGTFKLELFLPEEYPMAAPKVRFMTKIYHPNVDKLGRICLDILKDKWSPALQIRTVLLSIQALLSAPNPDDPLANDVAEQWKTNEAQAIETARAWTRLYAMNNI

HeLa = experiment: ATP-based viability loss in HeLa cells – cell-based, CellTiter-Glo luminescence, cherry-pick samples, cytotoxicity control for MITF activator project, dose response (AID 540259); format: functional; settings: Homo sapiens
CHO = CHO cell viability loss, potency – luminescence, cytotoxicity control for TLR9-MyD88 binding inhibitor project, dose response (AID 588339); format: functional, cell-based, hamster; settings: Cricetulus griseus;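 note: CHO cells stably coexpressing TLR9 and MyD88 fusions from primary screen; compound exposure lasted 48 hours before viability readout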
Large T antigen = Large T antigen (Simian virus 40, UniProt P03070); format: functional, Betapolyomavirus macacae;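 note: Confirmatory-stage PubChem screen for compounds that inhibit SV40 T antigen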
Beta Lactamase = Beta Lactamase (Pseudomonas aeruginosa, UniProt Q932Y6); experiment: BLA reporter interference, concentration series – BLA reporter cells, FRET fluorescence, artefact control for TLR9-MyD88 binding inhibitor project, dose response (AID 588341); format: cell-based;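 note: cell based assay in CHO-K1 cells stably expressing beta-lactamase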
Escherichia coli [4] = experiment: microbe, parasite or virus in culture
[5] = target: Photoreceptor-specific nuclear receptor (Homo sapiens, UniProt Q9Y5X4); format: functional, cell-based;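 note: CHO-S cells with Gal4-NCOR and VP16-NR2E3 two-hybrid luciferase reporter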
[6] = target: Dual specificity tyrosine-phosphorylation-regulated kinase 1A (Rattus norvegicus, UniProt Q63470); format: biochemical, Homo sapiens
[7] = target: T3, Polyadenylate-binding protein 1 (Homo sapiens, UniProt P11940); experiment: MLLE domain peptide-binding blockers, IC50 – biochemical, fluorescence polarization, FITC-PAM2 peptide, dose response (AID 602259); format: functional; settings: read-out: IC50_Mean
[8] = target: T3, Polyadenylate-binding protein 1; experiment: MLLE binding blockers, Cy5 peptide tracer – biochemical, fluorescence polarization, Cy5-PAM2 peptide, secondary, miRNA deadenylation inhibitor project, dose response (AID 602260); format: functional; settings: read-out: IC50_Mean
Escherichia coli [9] = experiment: microbe, parasite or virus in culture; remark: listed apart in the source
[10] = Luminescence Cell-Based Dose Response HTS to Identify Activators of Luciferase Translation or Activity in H4 […] Cells. [Related pubchem assays: 1829 (Project Summary), 1814 (Primary HTS)]; format: functional
[11] = Luminescence Cell-Based Dose Confirmation HTS to Identify Activators of 5'UTR Stem-Loop Driven Alpha-Synuclein mRNA Translation in H4 Neuroglioblastoma Cells. [Related pubchem assays: 1829 (Project Summary), 1814 (Primary HTS)]; format: functional
H4 = experiment: Luminescence Cell-Based Dose Response HTS to Identify Activators of 5'UTR Stem-Loop Driven Prion Protein mRNA Translation in H4 Neuroglioblastoma Cells. [Related pubchem assays: 1829 (Project Summary), 1814 (Primary HTS)]; format: functional; settings: Homo sapiens
[12] = target: Glucose-6-phosphate 1-dehydrogenase (Homo sapiens, UniProt P11413); experiment: inhibition of Homo sapiens G6PD, dose series – biochemical, fluorescence, selectivity assay for P. falciparum G6PD inhibitor project, dose response (AID 504792); format: functional
Vero = experiment: viability of Vero cells under compound – cytotoxicity control for flavivirus capping enzyme inhibitors (AID 588742); format: functional; settings: Chlorocebus sabaeus
INS1 = experiment: INS-1E survival protection against cytokine death – cell-based, luminescence, retest, dose response (AID 449756); format: functional; settings: Rattus norvegicus;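 note: cell death triggered by IL-1 beta plus TNF-alpha plus IFN-gamma mixture; protective hits raise ATP signal compared with cytokine alone wells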
Genome polyprotein = Genome polyprotein (dengue virus type 2, UniProt P29990); experiment: flavivirus cap methylation enzyme inhibition – biochemical, confirmation dose response, primary screen (AID 588689); format: functional
[13] = target: T4, Rac GTPase-activating protein 1 (Homo sapiens, UniProt Q9H0H5); experiment: blockers of MgcRacGAP-driven Rac1 GTP hydrolysis – biochemical, ADP Hunter fluorescence, primary and confirmatory, confirmation (AID 624330); format: functional
T4 sequence (Q9H0H5 whole entry): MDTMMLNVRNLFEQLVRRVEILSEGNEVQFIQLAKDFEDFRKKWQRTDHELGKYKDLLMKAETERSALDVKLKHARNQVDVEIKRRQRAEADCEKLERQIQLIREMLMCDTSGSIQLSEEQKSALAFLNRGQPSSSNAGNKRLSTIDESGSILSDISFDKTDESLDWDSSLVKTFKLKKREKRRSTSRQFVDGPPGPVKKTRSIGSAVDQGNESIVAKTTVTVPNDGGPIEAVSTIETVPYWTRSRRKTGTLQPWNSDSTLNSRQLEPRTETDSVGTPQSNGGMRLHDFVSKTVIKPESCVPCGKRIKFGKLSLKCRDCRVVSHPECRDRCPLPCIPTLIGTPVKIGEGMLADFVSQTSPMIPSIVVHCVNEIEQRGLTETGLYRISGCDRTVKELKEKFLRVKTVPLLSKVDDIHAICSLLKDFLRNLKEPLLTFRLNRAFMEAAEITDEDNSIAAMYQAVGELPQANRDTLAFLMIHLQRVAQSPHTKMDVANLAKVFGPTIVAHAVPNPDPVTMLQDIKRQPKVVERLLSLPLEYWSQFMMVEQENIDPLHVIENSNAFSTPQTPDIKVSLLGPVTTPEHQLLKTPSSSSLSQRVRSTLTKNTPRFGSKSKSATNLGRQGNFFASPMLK

[14] = target: T5, Corticotropin-releasing factor receptor 2/Corticotropin-releasing factor-binding protein (Homo sapiens, UniProt P24387+Q13324); experiment: activators of CRF receptor 2 with binding protein – uHTS hits, confirmation (AID 602473); format: functional; settings: read-out: EC50_Mean
T5 sequence (Q13324 whole entry): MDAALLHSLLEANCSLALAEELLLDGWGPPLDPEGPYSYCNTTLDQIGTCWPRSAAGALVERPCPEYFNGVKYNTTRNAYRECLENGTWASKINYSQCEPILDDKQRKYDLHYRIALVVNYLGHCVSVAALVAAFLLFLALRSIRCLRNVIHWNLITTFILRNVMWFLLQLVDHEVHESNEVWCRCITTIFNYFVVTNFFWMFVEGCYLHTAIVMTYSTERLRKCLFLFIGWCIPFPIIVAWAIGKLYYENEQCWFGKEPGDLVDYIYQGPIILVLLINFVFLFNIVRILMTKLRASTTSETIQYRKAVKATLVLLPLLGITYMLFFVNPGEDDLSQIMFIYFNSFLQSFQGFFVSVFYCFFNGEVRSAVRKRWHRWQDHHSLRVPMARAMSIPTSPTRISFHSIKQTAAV
T5 sequence (P24387 whole entry): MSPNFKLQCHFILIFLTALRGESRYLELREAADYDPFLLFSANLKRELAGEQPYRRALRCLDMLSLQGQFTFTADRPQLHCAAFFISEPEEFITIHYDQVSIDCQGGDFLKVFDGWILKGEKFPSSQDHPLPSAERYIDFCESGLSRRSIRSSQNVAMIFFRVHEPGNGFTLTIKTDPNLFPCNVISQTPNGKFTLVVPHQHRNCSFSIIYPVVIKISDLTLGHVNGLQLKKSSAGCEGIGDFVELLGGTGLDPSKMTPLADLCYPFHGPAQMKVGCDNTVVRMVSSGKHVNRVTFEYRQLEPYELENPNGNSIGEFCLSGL

Keap1/Nrf2 = Keap1/Nrf2 (Homo sapiens, UniProt Q14145); experiment: disruptors of Keap1 binding to Nrf2 peptide – biochemical, fluorescence polarization, cherry-picked samples, dose response (AID 588683)
[15] = NIH-3T3 fibroblast cytotoxicity, dose response, cytotoxicity control, cell-based, fluorescence, Alamar Blue, secondary assay (AID 2327); format: functional;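 note: NIH-3T3 mouse fibroblasts cultured with fluconazole at 8 µg/mL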

Sequence of Beta-2 adrenergic receptor (P07550 whole entry): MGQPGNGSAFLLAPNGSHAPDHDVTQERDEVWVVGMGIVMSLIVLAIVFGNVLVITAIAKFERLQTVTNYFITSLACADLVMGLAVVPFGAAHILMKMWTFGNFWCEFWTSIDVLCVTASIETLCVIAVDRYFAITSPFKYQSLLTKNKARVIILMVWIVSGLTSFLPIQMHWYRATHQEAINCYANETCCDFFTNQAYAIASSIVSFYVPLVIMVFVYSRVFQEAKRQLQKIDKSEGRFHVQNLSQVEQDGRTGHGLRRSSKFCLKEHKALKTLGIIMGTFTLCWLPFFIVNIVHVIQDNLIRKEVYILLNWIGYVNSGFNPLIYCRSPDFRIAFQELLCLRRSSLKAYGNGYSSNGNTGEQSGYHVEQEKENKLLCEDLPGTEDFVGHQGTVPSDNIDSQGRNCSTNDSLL
Sequence of Beta Lactamase (Q932Y6 whole entry): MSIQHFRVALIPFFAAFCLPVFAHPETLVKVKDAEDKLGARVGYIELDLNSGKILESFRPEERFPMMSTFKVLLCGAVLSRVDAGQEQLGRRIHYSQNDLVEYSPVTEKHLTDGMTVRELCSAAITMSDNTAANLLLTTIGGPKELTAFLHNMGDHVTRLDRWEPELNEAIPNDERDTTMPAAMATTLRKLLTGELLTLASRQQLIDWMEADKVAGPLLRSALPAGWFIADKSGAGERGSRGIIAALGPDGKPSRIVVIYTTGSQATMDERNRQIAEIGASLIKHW
T3 sequence (P11940 whole entry, the tested form may be a part): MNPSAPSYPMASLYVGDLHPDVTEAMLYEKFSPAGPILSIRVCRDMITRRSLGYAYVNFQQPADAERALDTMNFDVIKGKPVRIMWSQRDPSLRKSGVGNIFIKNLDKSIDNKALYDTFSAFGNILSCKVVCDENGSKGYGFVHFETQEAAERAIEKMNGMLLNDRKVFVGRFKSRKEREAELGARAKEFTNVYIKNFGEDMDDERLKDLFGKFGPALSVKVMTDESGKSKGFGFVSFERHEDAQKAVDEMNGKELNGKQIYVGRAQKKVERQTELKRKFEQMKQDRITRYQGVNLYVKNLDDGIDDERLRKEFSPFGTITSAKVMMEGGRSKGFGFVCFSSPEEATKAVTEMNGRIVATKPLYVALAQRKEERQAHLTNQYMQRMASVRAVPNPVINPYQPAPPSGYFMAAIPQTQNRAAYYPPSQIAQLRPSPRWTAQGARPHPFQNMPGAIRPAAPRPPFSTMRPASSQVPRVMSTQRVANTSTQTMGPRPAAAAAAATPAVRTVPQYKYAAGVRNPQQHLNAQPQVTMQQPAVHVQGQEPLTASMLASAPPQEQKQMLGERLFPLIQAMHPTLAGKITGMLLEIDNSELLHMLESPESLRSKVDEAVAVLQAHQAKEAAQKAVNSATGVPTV
Sequence of Large T antigen (P03070 whole entry): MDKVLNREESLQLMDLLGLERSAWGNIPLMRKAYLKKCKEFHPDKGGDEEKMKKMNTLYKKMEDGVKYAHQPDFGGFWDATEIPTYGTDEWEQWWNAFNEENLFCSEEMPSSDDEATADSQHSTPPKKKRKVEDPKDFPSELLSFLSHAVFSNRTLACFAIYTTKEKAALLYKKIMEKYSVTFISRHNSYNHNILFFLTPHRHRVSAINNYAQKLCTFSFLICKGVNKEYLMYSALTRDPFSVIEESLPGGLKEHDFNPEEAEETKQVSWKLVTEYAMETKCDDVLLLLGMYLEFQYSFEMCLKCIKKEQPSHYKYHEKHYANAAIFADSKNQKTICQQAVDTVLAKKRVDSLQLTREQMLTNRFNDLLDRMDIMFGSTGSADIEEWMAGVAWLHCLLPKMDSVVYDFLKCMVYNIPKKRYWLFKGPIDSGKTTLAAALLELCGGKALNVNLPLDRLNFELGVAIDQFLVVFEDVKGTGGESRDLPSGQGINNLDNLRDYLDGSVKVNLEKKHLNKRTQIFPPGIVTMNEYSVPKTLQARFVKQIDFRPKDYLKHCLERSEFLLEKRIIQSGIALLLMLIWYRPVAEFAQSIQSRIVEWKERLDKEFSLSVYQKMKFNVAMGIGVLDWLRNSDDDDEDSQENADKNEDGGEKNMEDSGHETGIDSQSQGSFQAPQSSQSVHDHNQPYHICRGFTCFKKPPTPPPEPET
Sequence of Glucose-6-phosphate 1-dehydrogenase (P11413 whole entry): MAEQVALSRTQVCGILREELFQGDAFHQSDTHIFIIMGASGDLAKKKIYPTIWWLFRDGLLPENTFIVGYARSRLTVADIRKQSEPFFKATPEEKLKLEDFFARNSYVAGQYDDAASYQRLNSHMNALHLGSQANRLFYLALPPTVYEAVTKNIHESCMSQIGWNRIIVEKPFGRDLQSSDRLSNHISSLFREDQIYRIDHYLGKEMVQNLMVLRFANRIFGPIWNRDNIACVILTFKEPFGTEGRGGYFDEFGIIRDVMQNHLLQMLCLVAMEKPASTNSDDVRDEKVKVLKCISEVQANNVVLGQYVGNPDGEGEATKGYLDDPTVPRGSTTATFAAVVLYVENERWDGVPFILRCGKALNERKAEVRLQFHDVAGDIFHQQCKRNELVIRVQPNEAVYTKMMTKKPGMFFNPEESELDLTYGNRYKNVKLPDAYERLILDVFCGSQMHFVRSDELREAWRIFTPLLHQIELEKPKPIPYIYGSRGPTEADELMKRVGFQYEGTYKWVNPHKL
Sequence of Keap1/Nrf2 (Q16236 whole entry): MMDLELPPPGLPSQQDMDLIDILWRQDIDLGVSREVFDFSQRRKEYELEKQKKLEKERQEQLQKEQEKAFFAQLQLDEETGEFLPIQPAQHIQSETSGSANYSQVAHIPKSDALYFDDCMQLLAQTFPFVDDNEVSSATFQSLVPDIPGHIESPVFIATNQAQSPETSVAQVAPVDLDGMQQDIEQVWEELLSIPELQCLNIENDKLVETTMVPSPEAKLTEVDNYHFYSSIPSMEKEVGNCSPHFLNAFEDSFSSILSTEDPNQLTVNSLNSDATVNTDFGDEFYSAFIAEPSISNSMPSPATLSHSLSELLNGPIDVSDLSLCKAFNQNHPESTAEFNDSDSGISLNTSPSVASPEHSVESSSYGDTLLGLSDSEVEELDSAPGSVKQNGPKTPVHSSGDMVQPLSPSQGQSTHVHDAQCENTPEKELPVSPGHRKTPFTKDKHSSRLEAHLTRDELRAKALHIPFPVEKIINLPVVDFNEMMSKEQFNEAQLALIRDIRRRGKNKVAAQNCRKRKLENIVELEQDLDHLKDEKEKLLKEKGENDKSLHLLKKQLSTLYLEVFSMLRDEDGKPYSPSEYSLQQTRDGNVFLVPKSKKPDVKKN
Sequence of Keap1/Nrf2 (Q14145 whole entry): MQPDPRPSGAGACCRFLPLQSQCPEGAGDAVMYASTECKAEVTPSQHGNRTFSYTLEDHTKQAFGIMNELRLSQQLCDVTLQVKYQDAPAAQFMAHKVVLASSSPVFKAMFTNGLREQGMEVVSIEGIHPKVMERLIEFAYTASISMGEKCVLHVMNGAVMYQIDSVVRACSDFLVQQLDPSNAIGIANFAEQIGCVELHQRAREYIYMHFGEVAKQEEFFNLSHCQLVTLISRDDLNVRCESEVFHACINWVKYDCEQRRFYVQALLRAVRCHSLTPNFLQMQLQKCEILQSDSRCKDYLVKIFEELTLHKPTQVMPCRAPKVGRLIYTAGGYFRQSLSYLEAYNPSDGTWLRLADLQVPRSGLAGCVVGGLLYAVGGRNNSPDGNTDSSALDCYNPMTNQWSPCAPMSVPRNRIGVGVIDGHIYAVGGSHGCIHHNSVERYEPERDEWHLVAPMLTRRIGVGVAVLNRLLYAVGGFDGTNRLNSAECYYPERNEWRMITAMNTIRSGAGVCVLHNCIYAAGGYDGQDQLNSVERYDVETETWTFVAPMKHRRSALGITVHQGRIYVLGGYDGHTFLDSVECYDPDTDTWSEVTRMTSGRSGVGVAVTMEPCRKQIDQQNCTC
Sequence of Photoreceptor-specific nuclear receptor (Q9Y5X4 whole entry, the tested form may be a part): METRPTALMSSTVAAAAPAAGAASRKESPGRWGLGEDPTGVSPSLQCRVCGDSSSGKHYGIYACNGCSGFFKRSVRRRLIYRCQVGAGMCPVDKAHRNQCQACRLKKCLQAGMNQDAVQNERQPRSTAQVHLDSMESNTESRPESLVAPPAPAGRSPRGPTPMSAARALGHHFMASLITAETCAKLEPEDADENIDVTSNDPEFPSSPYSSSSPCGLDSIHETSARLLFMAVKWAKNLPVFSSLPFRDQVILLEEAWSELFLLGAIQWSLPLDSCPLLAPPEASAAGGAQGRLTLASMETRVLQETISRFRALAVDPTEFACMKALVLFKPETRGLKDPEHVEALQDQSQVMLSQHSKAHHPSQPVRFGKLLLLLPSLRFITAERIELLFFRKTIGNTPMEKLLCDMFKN

Compound: O=C(O)c1ccc(/C=N/Nc2nc3ccccc3[nH]2)cc1
- IC50 [1]: > 67.6 µM (inactive)
- IC50 (HEK293): > 67.6 µM (inactive)

Compound: CC(=O)Nc1ccc(S(=O)(=O)N(Cc2cccnc2)Cc2cc3ccccc3nc2O)cc1
- EC50 [2]: 0.801 µM (active)
- IC50 (H9c2): > 79 µM (inactive)

Compound: COC(=O)c1c(-c2ccc(S(C)(=O)=O)cc2)sc2ccc(OC)cc12
- IC50 [3]: > 20 µM (inactive)
- AC50 (HeLa): 28 µM (active)

Compound: CCN(CC)c1ccc(-c2nc3cnccn3c2NC2CCCC2)cc1
- IC50 (CHO): > 16.6 µM (inactive)
- IC50 (Large T antigen): 21.9 µM (active)
- IC50 (Beta Lactamase): 5.29 µM (active)

Compound: C/C(Cl)=C/CSc1nn2c(=O)c3ccccc3nc2s1
- AC50 (HeLa): 36.3 µM (active)

Compound: CCc1nc(NC(C)(C)C)c2cnn(-c3ccccc3)c2n1
- AC50 (HeLa): 134 µM (active)

Compound: CC(=O)NC(Cc1c[nH]c2ccccc12)C(=O)O (configuration not stated)
- IC50 [1]: > 67.6 µM (inactive)
- IC50 (HEK293): > 67.6 µM (inactive)

Compound: CCCCCN(C(=O)CCC(=O)OCC(=O)N(C)Cc1ccc(C)cc1)c1c(N)n(CCCC)c(=O)[nH]c1=O
- AC50 (Escherichia coli [4]): > 380 µM (inactive)

Compound: Cc1ccc(S(=O)(=O)c2ccc([N+](=O)[O-])o2)cc1
- IC50 (CHO): 0.745 µM (active)
- IC50 (Beta Lactamase): 11.2 µM (inactive)
- IC50 [5]: 2.9 µM (active)

Compound: Cc1cc(C)c2c(N)c(C(=O)N/N=C/c3ccccc3)sc2n1
- IC50 [1]: > 67.5 µM (inactive)
- IC50 (HEK293): > 67.5 µM (inactive)

Compound: COc1ccc(C(=O)/C=C/c2ccc(N(C)C)cc2)c(OC)c1
- IC50 (CHO): > 49.8 µM (inactive)
- IC50 (Beta Lactamase): 4.71 µM (active)

Compound: NC(=O)CC(NC(=O)c1cccc(Br)c1)c1ccc(N2CCN(c3ccccn3)CC2)c([N+](=O)[O-])c1 (configuration not stated)
- EC50 [2]: 0.225 µM (active)
- AC50 [6]: 66.8 µM (active)

Compound: Oc1cccc(NC(=S)N=Nc2c(O)[nH]c3ccccc23)c1
- IC50 [7]: > 66 µM (inactive)
- IC50 [8]: > 66 µM (inactive)
- AC50 [6]: 12.4 µM (active)

Compound: COc1ccccc1Nc1nc(C)cs1
- AC50 (Escherichia coli [4]): 60.7 µM (active)
- AC50 (Escherichia coli [9]): 26.8 µM (active)

Compound: Brc1cc(Br)c2nc(-c3ccc(N4CCOCC4)cc3)ccc2c1
- IC50 (CHO): > 49.8 µM (inactive)
- IC50 (Beta Lactamase): 2.37 µM (active)

Compound: O=[N+]([O-])c1ccc(-[n+]2ccc3ccccc3c2)c([N+](=O)[O-])c1
- EC50 [10]: 11.4 µM (active)
- EC50 [2]: 10.2 µM (inactive)
- EC50 [11]: > 120 µM (not active)
- EC50 (H4): > 120 µM (not active)
- IC50 [12]: > 80 µM (inactive)
- CC50 (Vero): 24.9 µM (active)
- AC50 (INS1): 3.36 µM (active)
- IC50 (Large T antigen): 79.1 µM (active)
- IC50 (Genome polyprotein): > 100 µM (active)

Compound: NC(=O)CC(NC(=O)c1ccc(Br)cc1)c1ccc(N2CCN(c3ccccn3)CC2)c([N+](=O)[O-])c1 (configuration not stated)
- EC50 [2]: 0.213 µM (active)

Compound: N#C/C(=C\c1cn[nH]c1-c1ccc(Cl)cc1)C(=O)NCc1ccccc1
- AC50 (Escherichia coli [4]): 300 µM (active)
- AC50 (Escherichia coli [9]): 12.4 µM (active)

Compound: Nc1ccc2c3c(cccc13)-c1ccccc1-2
- IC50 [13]: 39.2 µM (active)
- EC50 [14]: 4.79 µM (active)
- IC50 [12]: > 80 µM (inactive)
- AC50 (Keap1/Nrf2): 2.01 µM (active)

Compound: COC(=O)/C(=C1\Oc2ccc(C(C)(C)C)cc2S1)C(F)(F)F
- AC50 (HeLa): 57.7 µM (active)

Compound: O=C1NC(=O)C2C1C(c1ccc([N+](=O)[O-])cc1)=NN2Cc1ccccc1 (configuration not stated)
- IC50 (CHO): > 49.8 µM (inactive)
- IC50 (Beta Lactamase): 10.3 µM (inactive)

Compound: CN(C(=O)c1cc2sccc2n1C)C1CCCCC1
- AC50 (HeLa): 218 µM (active)

Compound: CC(=O)c1csc(Nc2ccccc2Cl)n1
- IC50 [1]: > 67.6 µM (inactive)
- IC50 (HEK293): > 67.6 µM (inactive)

Compound: Oc1ccc(Nc2nc(-c3ccccc3)nc3ccccc23)cc1
- AC50 [6]: 0.461 µM (active)

Compound: CS(=O)(=O)c1ccc([C@@H](O)[C@@H](CF)NC(=O)C(Cl)Cl)cc1 [FLORFENICOL]
- AC50 (Escherichia coli [4]): 3.83 µM (active)

Compound: c1cnc(SCCOc2ccc3c(c2)CCC3)nc1
- IC50 [1]: > 67.6 µM (inactive)
- IC50 (HEK293): > 67.6 µM (inactive)
- EC50 [15]: > 160 µM (inactive)
